Paper PMC6253839, “Screening of Agelasine D and Analogs for Inhibitory Activity against Pathogenic Protozoa; Identification of Hits for Visceral Leishmaniasis and Chagas Disease” (Molecules, 2009)
≈ marks a conversion by molar mass, not a printed value. Entries after “also recorded” stand apart in the source; their conditions may differ. Read-outs that look alike come from different tables or passages of the source.

Legend:
[1] = system: T. cruzi Tulahuen CL2 strain (nifurtimox-sensitive); experiment: Antitrypanosomal activity, T. cruzi on MRC-5 cells, β-galactosidase readout; format: cell-based, Trypanosoma cruzi; details: for IC50: Trypanosoma cruzi, TULAHUEN
Experimental: To determine in vitro anti-trypanosomal activity, 4×10^3 MRC-5 cells and 4×10^4 parasites were added to each well of test plate with compound. […] The color reaction was read at 540 nm and absorbance values were expressed as a percentage of the blank controls.

[2] = system: P. falciparum GHA-strain (chloroquine-suceptible); experiment: Antiplasmodial activity, Malstat method; format: cell-based, Plasmodium falciparum; details: for IC50: Plasmodium falciparum, read-out: P. falciparum IC50
[3] = Cytotoxicity assay, resazurin; format: cell-based; details: human
Experimental: Cell viability was determined after addition of resazurin.

[4] = system: Leishmania infantum amastigotes (MHOM/ET 67); experiment: Antileishmanial activity, amastigotes in primary peritoneal mouse macrophages; format: cell-based; details: for IC50: Leishmania infantum, Macrophage, 120 h, read-out: L. infantum IC50; for hit for leishmaniasis according to TDR: criterion IC50 <0.5 μg/mL and SI >20
Experimental: Leishmania infantum amastigotes (MHOM/ET 67) were collected from an infected donor hamster and used to infect primary peritoneal mouse macrophages. To determine in vitro antileishmanial activity, 3×10^4 macrophages were seeded in each well of a 96-well plate. After 48 h outgrowth, 5×10^4 amastigotes/well were added and incubated for 2 h at 37 °C. […] Parasite burdens were determined microscopically after Giemsa staining and expressed as a percentage of the blank controls without compound.

[5] = system: Mycobacterium tuberculosis; details: cited from earlier work
Escherichia coli = system: Escherichia coli; design: method as in PMID 17442577; details: previous studies; cited from earlier work
Staphyllococcus aureus = system: Staphyllococcus aureus; design: method as in PMID 17442577; details: previous studies; cited from earlier work
[6] = MRC-5 SV2 cells (human fetal lung fibroblasts)
[7] = MRC5, 168 h, read-out: T. cruzi IC50
[8] = intracellular amastigotes, TDR hit criterion <0.5 μg/mL
[9] = GHA-strain, 72 h, TDR hit criterion <0.2 μg/mL

Structure (SMILES)	IC50 at 72 h [3, 6] [µg/mL]	IC50 [1, 7] [µg/mL]	IC50 [4, 8] [µg/mL]	IC50 [2, 9] [µg/mL]	other results
O=C(Cn1ccnc1[N+](=O)[O-])NCc1ccccc1 [Benznidazole, reference compound]	–	–	–	–	IC50 ([1]; MRC5, as printed in running text and table footnote, read-out: T. cruzi IC50): 0.25 µg/mL (≈ 0.961 µM)
CCN(CC)CCCC(C)Nc1ccnc2cc(Cl)ccc12 (centres unmarked) [Chloroquine, reference compound]	–	–	–	–	IC50 ([2]; 72 h): 0.04 µg/mL
CO/N=c1\[n-]cnc2c1n(C/C=C(\C)CCC=C(C)C)c[n+]2C [Compound 1a]	0.86 (≈ 2.73 µM)	< 0.079	7.5 (≈ 23.8 µM)	0.46	–
CO/N=c1\[n-]cnc2c1[n+](C/C=C(\C)CC/C=C(\C)CCC=C(C)C)cn2C [Compound 1b]	0.35 (≈ 0.913 µM)	< 0.096	0.77 (≈ 2.01 µM)	0.63	–
CC(C)=CCC/C(C)=C\CC/C(C)=C/C[n+]1cn(C)c2nc[n-]/c(=N\OCc3ccccc3)c21 [Compound 1c]	0.31 (≈ 0.674 µM)	< 0.11	0.99 (≈ 2.15 µM)	0.74	–
CO/N=c1\[n-]cnc2c1[n+](C/C=C(\C)CC/C=C(\C)CC/C=C(\C)CCC=C(C)C)cn2C [Compound 1d]	2 (≈ 4.43 µM)	0.11 (≈ 0.244 µM)	0.093 (≈ 0.206 µM)	0.1	IC50 ([1]; MRC5, read-out: T. cruzi IC50): < 1 µg/mL; hit for leishmaniasis according to TDR [4]: meets the definition of a hit; also recorded: identified as hits; antibacterial activity against M. tuberculosis, in words ([5]; previously shown): inhibition of Mycobacterium tuberculosis; antimalaria hit according to TDR ([2]; criterion IC50 <0.2 μg/mL with SI >20): met this requirement
CC(C)=CCC/C(C)=C/CC/C(C)=C/CC/C(C)=C/C[n+]1cn(C)c2nc[n-]/c(=N\OCc3ccccc3)c21 [Compound 1e]	3.2 (≈ 6.06 µM)	1.4 (≈ 2.65 µM)	5.4 (≈ 10.2 µM)	4.2	–
CC(C)=CCC/C(C)=C/CC/C(C)=C/CC/C(C)=C/C[n+]1cn(C)c2nc[n-]/c(=N\OC(C)(C)C)c21 [Compound 1f]	0.26 (≈ 0.527 µM)	< 0.12	0.27 (≈ 0.547 µM)	0.26	activity against L. infantum, in words [4]: potent inhibitors
CO/N=c1\[n-]cnc2c1[n+](C/C=C(\C)CC/C=C(\C)CC/C=C(\C)CCC=C(C)C)cn2CCC#N [Compound 1g]	0.49 (≈ 0.999 µM)	0.81 (≈ 1.65 µM)	12 (≈ 24.5 µM)	5.3	–
CC(C)=CCC/C(C)=C/CC/C(C)=C/CC/C(C)=C/C[n+]1cn(CCC#N)c2nc[n-]/c(=N\OCc3ccccc3)c21 [Compound 1h]	3.5 (≈ 6.18 µM)	3 (≈ 5.29 µM)	18 (≈ 31.8 µM)	10	–
CO/N=c1\[n-]cnc2c1[n+](C/C=C(\C)CC/C=C(\C)CC/C=C(\C)CCC=C(C)C)cn2C(c1ccccc1)c1ccccc1 [Compound 1i]	0.92 (≈ 1.52 µM)	1.3 (≈ 2.15 µM)	1.2 (≈ 1.99 µM)	3.5	–
CO/N=c1\[n-]cnc2c1[n+](C/C=C(\C)CCCC(C)CCCC(C)CCCC(C)C)cn2C (centres unmarked) [Compound 1j]	0.21 (≈ 0.459 µM)	< 0.11	0.23 (≈ 0.503 µM)	0.3	activity against L. infantum, in words [4]: potent inhibitors
CC1=C(CC/C(C)=C/CC/C(C)=C/C[n+]2cn(C)c3nc[n-]/c(=N\OCc4ccccc4)c32)C(C)(C)CCC1 [Compound 1l]	0.53 (≈ 1 µM)	0.14 (≈ 0.265 µM)	12 (≈ 22.7 µM)	1.3	–
CC1=C(CC/C(C)=C/CC/C(C)=C/C[n+]2cn(C)c3nc[n-]/c(=N\OC(C)(C)C)c32)C(C)(C)CCC1 [Compound 1m]	0.48 (≈ 0.972 µM)	< 0.12	0.99 (≈ 2.01 µM)	0.69	–
C=C1CC[C@H]2C(C)(C)CCC[C@]2(C)[C@H]1CC/C(C)=C/Cn1c[n+](C)c2nc[n-]/c(=N\OC)c21 [Compound 1n]	4.5 (≈ 9.96 µM)	0.49 (≈ 1.08 µM)	0.63 (≈ 1.39 µM)	0.29	–
C=C1CC[C@H]2C(C)(C)CCC[C@]2(C)[C@H]1CC/C(C)=C/Cn1c[n+](C)c2nc[n-]/c(=N\OC(C)(C)C)c21 [Compound 1o]	0.45 (≈ 0.911 µM)	< 0.12	4 (≈ 8.1 µM)	0.94	–
CC(C)=CCC/C(C)=C\CC/C(C)=C/C[n+]1cn(C)c2ncnc(N)c21 [Compound 2a]	> 26	0.43	> 26	2.9	antibacterial activity against E. coli, in words (Escherichia coli): virtually inactive; hit for Chagas disease according to TDR [1]: classified as hits; also recorded: identified as hits; antibacterial activity against M. tuberculosis, in words ([5]; previous studies): virtually inactive; antibacterial activity against S. aureus, in words (Staphyllococcus aureus): virtually inactive
C/C(=C\C[n+]1cn(C)c2ncnc(N)c21)CCCC(C)CCCC(C)CCCC(C)C (centres unmarked) [Compound 2b]	–	< 0.12	–	–	IC50 at 72 h ([3]; read-out: MRC-5 IC50): 0.75 µg/mL; IC50 [4]: 2.9 µg/mL; IC50 ([2]; 72 h): 0.96 µg/mL
C=C1CC[C@@H]2C(C)(C)CCC[C@@]2(C)[C@@H]1CC/C(C)=C/Cn1c[n+](C)c2ncnc(N)c21 [Compound 2c, agelasine D]	–	4.5	1.5	0.29	IC50 at 72 h ([3]; read-out: MRC-5 IC50): 6.7 µg/mL; IC50 ([2]; same value as 0.29 μg/mL, in μM): 0.63 µM
CC(C)=CCC/C(C)=C/CC/C(C)=C/CC/C(C)=C/Cn1cnc2c(N)ncnc21 [Compound 3f, 9-Geranylgeranyladenine]	2.7 (≈ 6.62 µM)	0.77 (≈ 1.89 µM)	> 29	> 29	IC50 ([1]; MRC5, read-out: T. cruzi IC50): < 1 µg/mL
CC(C)=CCC/C(C)=C/CC/C(C)=C/CC/C(C)=C/Cn1cnc2ncnc(N)c21 [Compound 4a]	2.6 (≈ 6.38 µM)	2.3 (≈ 5.64 µM)	> 26	9.4	–
CONc1ncnc2ncn(C/C=C(\C)CC/C=C(\C)CC/C=C(\C)CCC=C(C)C)c12 [Compound 4b]	2.1 (≈ 4.8 µM)	0.28 (≈ 0.64 µM)	> 28	> 28	–
CC(C)=CCC/C(C)=C/CC/C(C)=C/CC/C(C)=C/Cn1cnc2ncnc(NOCc3ccccc3)c21 [Compound 4c]	1.5 (≈ 2.92 µM)	1.5 (≈ 2.92 µM)	> 33	25	–
CC(C)=CCC/C(C)=C/CC/C(C)=C/CC/C(C)=C/Cn1cc[n+](C)c1 [Compound 5]	7.6	< 0.11	< 0.11	0.97	antibacterial activity against E. coli, in words (Escherichia coli): not against; hit for Chagas disease according to TDR [1]: classified as hits; also recorded: identified as hits; hit for leishmaniasis according to TDR [4]: classifies as a hit; also recorded: identified as hits; antibacterial activity against M. tuberculosis, in words ([5]; previous studies): not against; antibacterial activity against S. aureus, in words (Staphyllococcus aureus): reasonably active
CC(C)=CCC/C(C)=C/CC/C(C)=C/CC/C(C)=C/Cn1c[n+](C)c2ccccc21 [Compound 6]	2	< 0.12	2.5	1	–
CC(C)=CCC/C(C)=C/CC/C(C)=C/CC/C(C)=C/C[n+]1cnc2c(ncn2C)c1N [Compound 7]	16	11	> 32	10	–
CC(C)=CCC/C(C)=C/CC/C(C)=C/CC/C(C)=C/Cn1cnc2c1c(=N)ncn2C [Compound 8]	2.3 (≈ 5.45 µM)	0.19 (≈ 0.451 µM)	13 (≈ 30.8 µM)	3.37	–
CC1=C(CC/C(C)=C/CC/C(C)=C/Cn2cnc3c2C(=N)N(C)CN3C)C(C)(C)CCC1 [Compound 9]	> 28	3.2 (≈ 7.31 µM)	> 28	> 28	IC50 ([1]; MRC5, read-out: T. cruzi IC50): < 1 µg/mL
CCCCCCCCCCCCCCCCOP(=O)([O-])OCC[N+](C)(C)C [Miltefosine, reference compound]	–	–	0.24 (≈ 0.589 µM)	–	–
